# Measurements: patent US20080260774A1, “Alpha-galactosyl ceramide analogs and their use as immunotherapies” (priority 2007, published 2008)
# Assays:
# [1] = tested on: Sphingomonas capsulata; assay: Antibacterial efficacy in Sphingomonas capsulata infected mice; type: in vivo, mouse; conditions: 50 μg/kg
# Excerpt: Sphingomonas capsulata is a common environmental bacterial strain that is found in many places such as the air and water. It can be easily identified on nutrient agar plates because of its yellow colony color. […] Since the antibacterial activities of glycolipid antigens are mediated through the activation of NKT cells by glycolipid bound-CD1-d molecules, evaluation of the antibacterial efficacies using the disease model of Sphingomonas capsulata infection will focus on the impact of the NKT mediated pathway that is activated by glycolipid bindings. Six to eight week old female C57BL/6 mice were injected IP with Sphingomonas capsulate cells. […] Twenty-four hours after bacterial infection, livers were removed from mice and homogenized. Colony formation units (CFU) of Sphingomonas capsulate in liver homogenates were determined by plating diluted samples on nutrient plates. Colonies were counted after incubation for 48 hours at 37° C. […] To confirm the antibacterial efficacies of these α-GalCer analogs, another study was conducted to repeat the study by treating infected mice with 50 μg/kg in the same disease model. […] Six to eight week old female C57BL/6 mice were injected IP with 5×10^8 Sphingomonas capsulate cells. Mice were grouped into treatment and control groups with 4-6 mice per group. Four hours after the infection, mice in the treatment group were injected IP with testing α-GalCer analogs at 50 or 100 μg/kg, and the control group mice were injected with same volumes of PBS. Twenty-four hours after bacterial infection, mice from all groups were sacrificed. Livers were removed from mice and homogenized in 0.9% NaCl, 0.02% Tween 80 using tissue homogenizers. Colony formation units (CFU) of Sphingomonas capsulate in liver homogenates were determined by plating diluted samples on nutrient plates. Colonies were counted after incubation for 48 hours at 37° C.
# [2] = tested on: C57BL/6 mice; assay: Expansion of NKT subsets in spleens of C57BL/6 mice; type: in vivo; conditions: C57BL/6 Wt, 72 h post IV injection, 0.1 μg per mouse
# [3] = tested on: B16 melanoma; assay: Tumor infiltrating lymphocytes in B16 melanoma by flow cytometry; type: in vivo; conditions: day 21; 0.1 μg/mouse, once/week; normalized to DMSO
# [4] = tested on: TC1 tumor; assay: Tumor infiltrating lymphocytes in lung cancer (TC1) by flow cytometry; type: in vivo; conditions: day 21; 0.1 μg/mouse, once/week; normalized to DMSO
# [5] = tested on: human naïve NKTs (CD161^+CD3^+); assay: Cytokine/chemokine secretion by human naïve CD161+CD3+ NKTs co-cultured with autologous immature CD14+ DCs; type: cell-based
# [6] = tested on: FLU-A virus serotype H1N1 (WSN); assay: Influenza virus H1N1 (WSN) infection in BALB/c mice; conditions: mouse, in vivo
# [7] = tested on: syngeneic breast cancer (4T1); assay: Breast cancer model in mice (4T1, SubQ inoculation); type: in vivo, mouse; conditions: SubQ delivery
# [8] = tested on: naïve CD161^+/CD3^+ NKTs; assay: Human NKT TCR activation (phosphoproteins), glycolipid presented by HeLa, HeLa-CD1d or iDCs, 10 μg/ml; type: cell-based; conditions: for intracellular phospho-CD3ε / phospho-CREB / phospho-ERK1/2: 10 μg/ml
# [9] = tested on: BALB/c mice; assay: Mouse serum cytokines/chemokines after IV, SubQ or IM injection; type: in vivo
# [10] = tested on: H5 of avian influenza viruses (pHA); type: in vivo, mouse; conditions: mouse, in vivo
# [11] = tested on: syngeneic lung cancer (TC1) cells; assay: Lung cancer model in mice (TC1, IV inoculation); type: in vivo, mouse; conditions: IV administration
# [12] = tested on: FLU-A virus serotype H1N1 (WSN); assay: Cytopathetic effect / virus titer in MDCK cells infected with H1N1 (WSN); type: cell-based
# Protocol: FIG. 60(A-B) show the cytopathetic effect (CPE) of Madin-Darby canine kidney (MDCK) cells in vitro. MDCK cells were pretreated with vehicle, α-GalCer or one of the α-GalCer analogs C13, C14 or C16 at 10 μg/ml for four hours, followed by infection with FLU-A virus serotype H1N1 (WSN) at 10TCID50.
# BALB/c mice were treated via intranasal route with control, α-GalCer (C1) or the α-GalCer analogs C13, C14 or C16 at one hour prior to virus challenge with H1N1 (WSN). […] In general, certain α-GalCer analogs may exert direct anti-viral effects, or act indirectly via immune stimulation. […] MDCK cells were pretreated with vehicle, α-GalCer or one of the α-GalCer analogs C13, C14 or C16 at 10 μg/ml for four hours, followed by infection with FLU-A virus serotype H1N1 (WSN) at 10TCID50.
# [13] = tested on: human monocyte-derived DCs; assay: Maturation of human monocyte-derived dendritic cells
# [14] = tested on: BALB/c mice; assay: Expansion/activation of mouse splenocyte subpopulations 72 h after injection; type: in vivo
compound,measurement,setting,value
CCCCCCCCCCCCCC[C@@H](O)[C@@H](O)[C@H](CO[C@H]1O[C@H](CO)[C@H](O)[C@H](O)[C@H]1O)NC(=O)CCCCCCCCCCc1ccc(-c2ccc(F)cc2)cc1 [C30],CFU numbers (in lungs),[1],significant in comparison to the untreated group
same,total number of NKTs and its two subtypes NKT1 and NKT2,[2],increase of total number of NKTs
same,"number of tumor infiltrating lymphocytes (CD3+ T, CD8 T, NKs, NKTs)",[3],"significantly significant increase in the number of TH1-biased tumor infiltrating lymphocytes in melanoma, as compared with both control and α-GalCer"
same,"number of tumor infiltrating lymphocytes (CD3+ T, CD8 T, NKs, NKTs)",[4],"significantly significant increase in the number of TH1-biased tumor infiltrating lymphocytes in lung cancer, as compared with both control and α-GalCer"
CCCCCCCCCCCCCCCCCCCCCCCCCC(=O)N[C@@H](CO[C@H]1O[C@H](CO)[C@H](O)[C@H](O)[C@H]1O)[C@H](O)[C@H](O)CCc1ccccc1 [C13],secretion of IFN-γ,"[5]; 10 μg/ml, 18 hour culture, compared with α-GalCer",significantly greater secretion of IFN-γ than α-GalCer
same,induction of chemokines,[5]; compared with α-GalCer,"striking increase in chemokines such as MIP-11, MCP-1, and IL-8"
same,IFN/IL-4 ratio (TH1/TH2 bias),[5]; normalized to DMSO control,more TH1-biased
same,cumulative proportion of survival,[6],prolonged survival
same,survival,[6],significantly enhanced survival
same,effects on survival compared with C1,[7],did not differ significantly from that of C1
same,suppression of tumor size compared with C1,[7],significantly greater suppression of tumor size than C1
same,tumor growth and survival compared to control,[7],able to suppress tumor growth and prolong survival as compared to control
same,TCR activation,"[8]; CD1d-dependent, HeLa-CD1d or DCs",stronger in TCR activation than compounds C1 and C17
same,intracellular phospho-CD3ε,[8]; presented by DCs,17.3 folds
same,phospho-CREB,[8]; presented by DCs,158 folds increase
same,intracellular phospho-CD3ε,[8]; presented by HeLa-CD1d cells,7.3 folds of control
same,phospho-CREB,[8]; presented by HeLa-CD1d cells,41 folds expression
same,phospho-ERK1/2,[8]; with DCs,35 folds
same,phospho-ERK1/2,[8]; with HeLa-CD1d cells,6.6 folds increase
same,IFN-γ/IL-4 ratio (TH1/TH2 bias),"[9]; 2 hours, IV route, compared with C1",less TH2 responses than C1
same,"serum IL-2, IL-12, MIP-1β and MCP-1",[9]; IV administration,"striking rises in IL-2, IL-12, MIP-1β and MCP-1"
same,adjuvant activities in enhancing the anti-HAc antibody titer,[10],better adjuvant activities than the others in enhancing the antibody titer
same,effectiveness as adjuvant,[10],particularly effective as adjuvants
same,anti-cancer efficacy compared with C1,[11],significantly greater anti-cancer efficacy than C1
same,entry/replication of H1N1 virus (virus titer),[12],slight inhibition of the entry/replication of H1N1 virus in vitro
same,maturation of human monocyte-derived DCs,[13],promotes maturation of human monocyte-derived DCs
same,total and mature DCs,"[14]; FIGS. 26B, 28B and 30B, compared with C1",significantly greater rises in total and mature DCs than C1
same,CD8^+/CD4^+ ratio,"[14]; FIGS. 26H, 28H and 30H",more potent than C1
same,splenocyte expansion,"[14]; IM administration, 72 hours",greater effects than C1
same,expansion of splenocytes,"[14]; IV administration, 72 hours",greater potency than C1
same,CD4^+ T cells,[14]; SubQ route,more active over control
same,CD8^+ T cells,[14]; SubQ route,more activity than C1
same,B cell expansion/activation,"[14]; mouse, in vivo",significant activities
same,CD8^+ T cell expansion/activation,"[14]; mouse, in vivo",more active than C1
same,NK and NKT expansion/activation,"[14]; mouse, in vivo",comparable activities as C1
same,expansion/activation of NKs and NKTs,"[14]; mouse, in vivo",best capacity for expansion/activation of NKs and NKTs
